# Assay results taken from patent EP0394553A2, “Use of fluorine containing pyridone carboxylic acid derivatives for preparing a medicament for the treatment of HIV infections” (DAIICHI PHARMACEUTICAL CO., LTD., priority 1989, dated 1990).
# Like-named read-outs stand apart in the source and are kept apart here.
# Tested on: HIV (LAV 1)
# Assay: microbe, parasite or virus in culture
# Details: for Viable cell count / Viral antigen-positive cell percentage: 4-day addition; for viability at 1 µg/mL / viability at 10 µg/mL: Human immunodeficiency virus 1, CCRF-CEM
# Experimental: Human T cell-derived, T4 antigen-positive CEM cells (provided by the Institut Pasteur, France) were used as host cells of HIV. Cell culture was carried out in a carbon dioxide-containing atmosphere in an incubator maintained at 37°C according to a conventional method [cf. […] The culture supernatant (5×10⁶ TCID₅₀/ml) obtained by subjecting CEM cells to HIV (LAV 1) infection and stored at -70°C was used as the HIV source.
# The medium for cell culture (10 ml) placed in a plastic culture flask (25 cm²) was inoculated with CEM cells at a cell density of 2.5×10⁵ cells/ml. After 3 days of incubation, the culture was transferred to a 15-ml centrifuge tube and subjected to centrifugation at 1,000 revolutions per minute for 5 minutes for sedimentation of cells and removal of the culture medium.
# The stock viral suspension was added to the host cells thus prepared to an MOI of 0.05 and the mixture was maintained at 37°C for 90 minutes with stirring at 30-minute intervals for viral adsorption. The medium was added to HIV-infected cells to a cell density of 5.0×10⁵ cells/ml to give an HIV-infected cell suspension.
# A mixture (1.0 ml) of the three constituents mentioned below was added to each well of a 24-well plastic culture plate and the test substance final concentration was adjusted to 10 mcg/ml, 5 mcg/ml, 2.5 mcg/ml or 1 mcg/ml. The "no addition" wells (0 mcg/ml) served as controls.
# After 4 days of incubation following viral infection, the cells in each well on the 24-well culture plate were suspended uniformly by pipetting and a 0.5-ml portion of the suspension was separated. A 2.0-ml portion of test substance-free fresh medium was added to the remaining 0.5-ml portion of the cell suspension, followed by incubation.
# Seven days after viral infection, pipetting was performed to give a uniform cell suspension in each well and a 0.5-ml portion of the suspension was separated.
# Incubation was continued and, 10 days after viral infection, a uniform cell suspension was produced in the same manner in each well and a 1.5-ml portion thereof was separated. A fresh 2.0-ml portion of the medium free of (or containing) the test substance was added to the well, followed by further incubation.
# Fifteen days after viral infection, the cells in each well were suspended uniformly in the same manner in the medium and a 2.0-ml portion of the suspension was separated. A fresh 2.0-ml portion of the medium free of (or containing) the test substance was added to the remaining 0.5 ml of the cell suspension and incubation was continued.
# Medium exchange was performed in the same manner 20 days and 25 days after viral infection.
# The cell suspensions collected 4 days, 7 days, 10 days, 20 days and 30 days after viral infection were tested for viable cell count and viable cell percentage by trypan blue staining. At the same time, viral antigen-positive cell percentage determination was carried out by immunofluorescence using an anti-HIV antiserum isolated from a healthy carrier of HIV.
# The numerical values given each is the mean for the respective two wells on the culture plate. The viable cell count is the total cell count minus the count of dead cells stained with trypan blue. The viable cell percentage is the percentage of viable cells among all the cells including dead cells. The viral antigen-positive cell percentage is the percentage of cells indicating antigen expression as found among all the cells including dead cells.
# [1] = 96 h, read-out: Viable cell percentage, 1 mcg/ml, 4-day addition, after 4 days
# [2] = 96 h, read-out: Viable cell percentage, 10 mcg/ml, 4-day addition, after 4 days
# [3] = read-out: Viable cell percentage, 1 mcg/ml, 4-day addition, after 7 days
# [4] = read-out: Viable cell percentage, 1 mcg/ml, 4-day addition, after 10 days
# [5] = read-out: Viable cell percentage, 1 mcg/ml, 4-day addition, after 20 days
# [6] = read-out: Viable cell percentage, 1 mcg/ml, 4-day addition, after 30 days
# [7] = read-out: Viable cell percentage, 10 mcg/ml, 4-day addition, after 7 days
# [8] = read-out: Viable cell percentage, 10 mcg/ml, 4-day addition, after 10 days
# [9] = read-out: Viable cell percentage, 10 mcg/ml, 4-day addition, after 20 days
# [10] = read-out: Viable cell percentage, 10 mcg/ml, 4-day addition, after 30 days
Compound,"Viable cell count (1 mcg/ml, after 4 days) [× 10⁴ cells/ml]","Viral antigen-positive cell percentage (1 mcg/ml, after 4 days) [%]","Viable cell count (1 mcg/ml, after 7 days) [× 10⁴ cells/ml]","Viral antigen-positive cell percentage (1 mcg/ml, after 7 days) [%]","Viable cell count (1 mcg/ml, after 10 days) [× 10⁴ cells/ml]","Viable cell count (1 mcg/ml, after 20 days) [× 10⁴ cells/ml]","Viable cell count (1 mcg/ml, after 30 days) [× 10⁴ cells/ml]","Viable cell count (10 mcg/ml, after 4 days) [× 10⁴ cells/ml]","Viral antigen-positive cell percentage (10 mcg/ml, after 4 days) [%]","Viable cell count (10 mcg/ml, after 7 days) [× 10⁴ cells/ml]","Viral antigen-positive cell percentage (10 mcg/ml, after 7 days) [%]","Viable cell count (10 mcg/ml, after 10 days) [× 10⁴ cells/ml]","Viral antigen-positive cell percentage (10 mcg/ml, after 10 days) [%]","Viable cell count (10 mcg/ml, after 20 days) [× 10⁴ cells/ml]","Viral antigen-positive cell percentage (10 mcg/ml, after 20 days) [%]","Viable cell count (10 mcg/ml, after 30 days) [× 10⁴ cells/ml]","Viral antigen-positive cell percentage (10 mcg/ml, after 30 days) [%]",viability at 1 µg/mL [1] [%],viability at 10 µg/mL [2] [%],viability at 1 µg/mL [3] [%],further results
"CCN1CCN(c2c(F)cc3c(=O)c(C(=O)O)cn4c3c2OCC4C)CC1 (racemic) [IIIa, (±)-9-Fluoro-3-methyl-10-(4-ethyl-1-piperazinyl)-7-oxo-2,3-dihydro-7H-pyrido[1,2,3-de][1,4]benzoxazine-6-carboxylic acid]",240,72,37,65,19,20,14,180,82,61,75,260,26,310,18,330,6,92,88,57,"Viral antigen-positive cell percentage (1 mcg/ml, after 10 days): 30%; Viral antigen-positive cell percentage (1 mcg/ml, after 20 days): 20%; viability at 1 µg/mL [4]: 30%; viability at 1 µg/mL [5]: 78%; viability at 1 µg/mL [6]: 40%; viability at 10 µg/mL [7]: 74%; viability at 10 µg/mL [8]: 93%; viability at 10 µg/mL [9]: 91%; viability at 10 µg/mL [10]: 94%"
"CCCN1CCN(c2c(F)cc3c(=O)c(C(=O)O)cn4c3c2OCC4C)CC1 (racemic) [IIIb, (±)-9-Fluoro-3-methyl-10-(4-n-propyl-1-piperazinyl)-7-oxo-2,3-dihydro-7H-pyrido[1,2,3-de][1,4]benzoxazine-6-carboxylic acid]",220,88,53,62,19,25,14,190,80,62,50,240,40,320,13,300,4,89,89,75,viability at 1 µg/mL [4]: 27%; viability at 1 µg/mL [5]: 81%; viability at 1 µg/mL [6]: 36%; viability at 10 µg/mL [7]: 70%; viability at 10 µg/mL [8]: 83%; viability at 10 µg/mL [9]: 92%; viability at 10 µg/mL [10]: 94%
"CCCCN1CCN(c2c(F)cc3c(=O)c(C(=O)O)cn4c3c2OCC4C)CC1 (racemic) [IIIc, (±)-9-Fluoro-3-methyl-10-(4-n-butyl-1-piperazinyl)-7-oxo-2,3-dihydro-7H-pyrido[1,2,3-de][1,4]benzoxazine-6-carboxylic acid]",220,82,46,70,28,10,10,200,80,51,47,250,9,340,9,320,3,87,92,60,viability at 1 µg/mL [4]: 33%; viability at 1 µg/mL [5]: 55%; viability at 1 µg/mL [6]: 32%; viability at 10 µg/mL [7]: 67%; viability at 10 µg/mL [8]: 93%; viability at 10 µg/mL [9]: 93%; viability at 10 µg/mL [10]: 95%
"CC(C)N1CCN(c2c(F)cc3c(=O)c(C(=O)O)cn4c3c2OCC4C)CC1 (racemic) [IIId, (±)-9-Fluoro-3-methyl-10-(4-isopropyl-1-piperazinyl)-7-oxo-2,3-dihydro-7H-pyrido[1,2,3-de][1,4]benzoxazine-6-carboxylic acid]",250,72,50,70,24,12,9,190,78,60,50,280,25,290,11,300,4,91,88,62,viability at 1 µg/mL [4]: 28%; viability at 1 µg/mL [5]: 60%; viability at 1 µg/mL [6]: 31%; viability at 10 µg/mL [7]: 67%; viability at 10 µg/mL [8]: 91%; viability at 10 µg/mL [9]: 95%; viability at 10 µg/mL [10]: 94%
